Earlier results as cited in US20240217930A1 (priority 2021, published 2024).

Key:
[1] = trials performed in cats; cited from earlier work
live virus = conditions: cited from earlier work
[2] = test system: ten further coronavirus strains; conditions: read-out: Ki against ten further coronavirus strains; cited from earlier work

Compound	side effects in cats [1]	activity in cell-based live virus assays (live virus) [µM]	Ki [2] [nM]
CC(C)C[C@H](NC(=O)OCc1ccccc1)C(=O)N[C@@H](C[C@@H]1CCNC1=O)C(O)S(=O)(=O)[O-].[Na+] (stereo partly drawn) [GC376]	has shown side effects	–	–
PF-00835231	–	~1	0.03 to 4
